Measured values published in patent US10653694B2, “Cytotoxic compounds which are inhibitors of the polymerisation of tubulin” (CENTRE NATIONAL DE LA RECHERCHE SCIENTIFIQUE (CNRS), priority 2014, dated 2020).
Like-named read-outs stand apart in the source and are kept apart here.

Legend:
[1] = system: HCT116 human cancer cell line (colorectal cancer); assay: Cytotoxicity on HCT116 human cancer cell line (resazurin, 72 h); assay type: cell-based
Description: (§1) Brown oil, 89%. Rf 0.3 (Cyclohexane/EtOAc, 7/3). IR (neat, cm^−1): 1609, 1593, 1564, 1428, 1205, 1157. ^1H NMR (300 MHz, CDCl3): 8.08 (d, 1H, J=8.2 Hz), 7.90 (d, 1H, J=8.4 Hz), 7.77-7.72 (ddd, 1H, J=8.2 Hz, J=6.9 Hz, J=1.3 Hz), 7.44 (ddd, 1H, J=8.3 Hz, J=7.0 Hz, J=1.0 Hz), 6.49 (d, 2H, J=2.2 Hz), 6.27 (t, 1H, J=2.2 Hz), 4.90 (q, 1H, J=6.9 Hz), 3.73 (s, 6H), 2.91 (s, 3H), 1.78 (d, 3H, J=6.9 Hz). ^13C NMR (75 MHz, CDCl3): 171.8, 163.8, 161.0 (2C), 150.7, 146.9, 133.2, 128.5, 126.6, 124.7, 121.6, 106.2 (2C), 98.0, 55.4 (2C), 43.4, 26.9, 21.1. m/z MS (APCI^+): 309 (M+H)^+. Cytotoxicity Protocol. U87, H1299 and MDA-MB231 cells are grown in Dulbecco minimal essential medium (DMEM) containing 4.5 g/L glucose and supplemented with 10% foetal calf serum and 1% glutamine. K562 and HCT116 cells are grown in RPMI 1640 medium containing 10% foetal calf serum and 1% glutamine. All the cell lines are maintained in culture at 37° C. in a humid atmosphere containing 5% CO2. The cells are inoculated in 96-well culture plates in an amount of 5000 cells per well in 50 μL of culture medium. After 24 hours of culture, the molecule to be tested, dissolved in DMSO and diluted 1/1000 in suitable culture medium, is added in each well in an amount of 50 μL per well. After 72 hours of incubation, 20 μL of resazurin is added in each well. After 1 hour of incubation, emitted fluorescence is measured at 590 nm after excitation at 560 nm using the Victor fluorescence reader (Perkin-Elmer, USA). Each concentration is tested three times and each experiment is repeated three times. Protocol for Inhibition of Polymerisation of Tubulin. When tubulin is placed at a temperature of 0° C., it is in the form of free dimers. […] The IPT of the various synthesized analogues was determined on a soluble tubulin according to the method of Shelanski^7 from sheep brains where it constitutes 20 to 25% of soluble proteins. The “antitubulin” activity is evaluated according to the method of Gaskin^8 by measuring turbidity, which is proportional to the microtubule concentration in the suspension. Turbidity is measured by absorption of the suspension at 350 nm using a spectrophotometer fitted with a cell thermostatically-controlled at 37° C. The various samples were dissolved in DMSO and incubated 10 minutes at 37° C. then 5 minutes at 0° C. The tubulin assembly and disassembly curves are obtained by absorption kinetics at 350 nm as a function of time. The IC50 determined graphically is defined as the concentration of inhibitor necessary to decrease by 50% the maximum rate of assembly of the control tubulin. In Vitro Biological Study of Compounds of the Present Invention
The cytotoxic activity of the compounds was studied in vitro principally on the HCT116 human cancer cell line (colorectal cancer). The line selected for this study was incubated at 37° C. in the presence of one of the compounds added in the culture medium at various concentrations. The inhibitory concentration inducing the death of 50% of the cells (IC50) was determined after 72 hours of incubation (Table 1) for each compound. The set of experiments carried out made it possible to determine the degree of toxicity of the compounds tested by taking isoCA-4 as the reference. […] Lastly, when these first results are examined, it appears that the reduction of the double bond located between the two aromatic nuclei yields “reduced” type II derivatives about 10 times less cytotoxic than their precursors I as we had already noted during the reduction of isoCA-4 derivatives to isoerianin-type derivatives.

tubulin [2] = assay: Inhibition of polymerisation of tubulin (IPT); assay type: biochemical, sheep
Description: as §1
The most cytotoxic compounds were selected for tests of inhibition of polymerisation of tubulin. These tests were carried out under the direction of Dr J. Dubois at Gif-sur-Yvette, France. Tubulin is purified from ewe brains according to the method of Shelanski^9 by two assembly-disassembly cycles. The stock solution (15-20 mg/mL), stored at −196° C., is thawed and diluted in assembly buffer (0.1 M MES, 0.5 mM MgCl2, 1 mM EGTA, and 1 mM GTP, pH 6.6) to have a final concentration of 10 μM. Tubulin assembly is monitored by fluorescence on 96-well plates according to the method of Barron et al.^10 Inhibitor (DMSO, 1 μL) is added to the tubulin solution (10 μM, 100 μL per well) and the solution is incubated 45 minutes at room temperature. GTP (1 mM final) is then added, the solution is mixed rapidly and fluorescence (λex=350 nm, λem=440 nm) is measured on a Wallac Victor fluorometer (Perkin Elmer). The inhibition of 50% of the maximum rate of assembly (IC50) is determined in duplicate or triplicate on 10 concentrations bracketing the IC50.

[3] = system: H1299 (non-small-cell lung cancer); assay: Cytotoxicity on H1299 line (resazurin, 72 h); assay type: cell-based; conditions: Homo sapiens, NCI-H1299
Description: as §1
(§2) Compounds I-15, I-16 and I-19 were also evaluated on a K562 chronic myeloid leukaemia line and a K562R imatinib-resistant chronic myeloid leukaemia line.

[4] = system: K562 (chronic myeloid leukaemia); assay: Cytotoxicity on K562 line (resazurin, 72 h); assay type: cell-based; conditions: Homo sapiens
Description: as §1, §2

[5] = system: K562R imatinib-resistant chronic myeloid leukaemia line; assay: Cytotoxicity on K562R line (72 h); assay type: cell-based; conditions: Homo sapiens, K-562R; Table 2; 50% cell death after 72 hours of incubation
Description: Brown oil, 89%. Rf 0.3 (Cyclohexane/EtOAc, 7/3). IR (neat, cm^−1): 1609, 1593, 1564, 1428, 1205, 1157. ^1H NMR (300 MHz, CDCl3): 8.08 (d, 1H, J=8.2 Hz), 7.90 (d, 1H, J=8.4 Hz), 7.77-7.72 (ddd, 1H, J=8.2 Hz, J=6.9 Hz, J=1.3 Hz), 7.44 (ddd, 1H, J=8.3 Hz, J=7.0 Hz, J=1.0 Hz), 6.49 (d, 2H, J=2.2 Hz), 6.27 (t, 1H, J=2.2 Hz), 4.90 (q, 1H, J=6.9 Hz), 3.73 (s, 6H), 2.91 (s, 3H), 1.78 (d, 3H, J=6.9 Hz). ^13C NMR (75 MHz, CDCl3): 171.8, 163.8, 161.0 (2C), 150.7, 146.9, 133.2, 128.5, 126.6, 124.7, 121.6, 106.2 (2C), 98.0, 55.4 (2C), 43.4, 26.9, 21.1. m/z MS (APCI^+): 309 (M+H)^+. Cytotoxicity Protocol. U87, H1299 and MDA-MB231 cells are grown in Dulbecco minimal essential medium (DMEM) containing 4.5 g/L glucose and supplemented with 10% foetal calf serum and 1% glutamine. K562 and HCT116 cells are grown in RPMI 1640 medium containing 10% foetal calf serum and 1% glutamine. All the cell lines are maintained in culture at 37° C. in a humid atmosphere containing 5% CO2. The cells are inoculated in 96-well culture plates in an amount of 5000 cells per well in 50 μL of culture medium. After 24 hours of culture, the molecule to be tested, dissolved in DMSO and diluted 1/1000 in suitable culture medium, is added in each well in an amount of 50 μL per well. […] After 1 hour of incubation, emitted fluorescence is measured at 590 nm after excitation at 560 nm using the Victor fluorescence reader (Perkin-Elmer, USA). […] The IPT of the various synthesized analogues was determined on a soluble tubulin according to the method of Shelanski^7 from sheep brains where it constitutes 20 to 25% of soluble proteins. The “antitubulin” activity is evaluated according to the method of Gaskin^8 by measuring turbidity, which is proportional to the microtubule concentration in the suspension. Turbidity is measured by absorption of the suspension at 350 nm using a spectrophotometer fitted with a cell thermostatically-controlled at 37° C. […]
as §2

many human cancer lines = conditions: read-out: IC50 (cytotoxic); cited from earlier work
tubulin [6] = conditions: binding to the colchicine site; read-out: IC50 (inhibits tubulin assembly into microtubules); cited from earlier work
[7] = system: endothelial cell proliferation; conditions: inhibition of endothelial cell proliferation; cited from earlier work
[8] = in the presence of hepatocytes; cited from earlier work
[9] = Homo sapiens, HCT-116, Table 1, concentration inducing 50% cell death after 72 hours of incubation, read-out: HCT116 IC50
[10] = Table 3, inhibition of 50% of the maximum rate of assembly, tubulin 10 μM, read-out: IPT (IC50)
[11] = Homo sapiens, HCT-116, 72 hours of incubation, read-out: IC50 (cytotoxicity, HCT116)
[12] = Table 2, 50% cell death after 72 hours of incubation, read-out: H1299 IC50
[13] = range given jointly for K562 and H1299 lines, read-out: IC50 (cytotoxicity, H1299)
[14] = K562, Table 2, 50% cell death after 72 hours of incubation, read-out: K562 IC50
[15] = range given jointly for K562 and H1299 lines, read-out: IC50 (cytotoxicity, K562)
[16] = Homo sapiens, HCT-116, Table 2, 50% cell death after 72 hours of incubation, read-out: HCT116 IC50

SMILES | IC50 [1, 9] [nM] | IC50 (tubulin [2]; [10]) [nM] | IC50 [1, 11] [nM] | IC50 [4, 14] [nM] | also measured
COc1ccc(C(C)c2nc(C)nc3ccccc23)cc1OC (stereo not drawn) [II-2, 4-[1-(3,4-Dimethoxy-phenyl)-ethyl]-2-methyl-quinazoline] | 950 |  |  |  | 
C=C(c1ccc(SC)cc1)c1nc(C)nc2ccccc12 [Compound I-4, 2-Methyl-4-(1-(4-(methylthio)phenyl)vinyl)quinazoline] | 52 | 2900 |  |  | 
C=C(c1ccc(OC)c(O)c1)c1nc(C)nc2ccccc12 [Compound I-6, 2-Methoxy-5-(1-(2-methylquinazolin-4-yl)vinyl)phenol] | 10 |  | < 20 |  | IC50 (tubulin [2]; read-out: IC50 (inhibition of polymerisation of tubulin)): 600 nM
C=C(c1ccc(OC(F)(F)F)cc1)c1nc(C)nc2ccccc12 [Compound I-3, 2-Methyl-4-(1-(4-(trifluoromethoxy)phenyl)vinyl)quinazoline] | 2300 |  |  |  | 
C=C(c1ccc(OC)cc1)c1nc(Cl)nc2ccccc12 [Compound I-10, 2-Chloro-4-[1-(4-methoxy-phenyl)-vinyl]-quinazoline] | 34 | 1900 | 40 | 38 | IC50 [3, 12]: 25 nM; IC50 [3, 13]: 22 to 38 nM; IC50 [4, 15]: 22 to 38 nM
C=C(c1ccc(OC)c(C#CCO)c1)c1nc(C)nc2ccccc12 [Compound I-15, 3-(2-Methoxy-5-(1-(2-methylquinazolin-4-yl)vinyl)phenyl)prop-2-yn-1-ol] |  | 1200 | < 20 | 8 | IC50 [1, 16]: 1.5 nM; IC50 [5]: ≤ 1 nM
C=C(c1ccc2ccccc2c1)c1nc(C)nc2ccccc12 [Compound I-8, 2-Methyl-4-(1-(naphthalen-2-yl)vinyl)quinazoline] | 130 | 2200 |  |  | melting point: 113.6 °C
C=C(c1ccc(OC)c(OC)c1)c1nc(C)nc2ccccc12 [Compound I-2, 4-[1-(3,4-Dimethoxy-phenyl)-vinyl]-2-methyl-quinazoline] | 460 |  |  |  | 
C=C(c1ccc(OC)cc1)c1nc(C)cc2ccccc12 [Compound I-18, 1-(1-(4-Methoxyphenyl)vinyl)-3-methylisoquinoline] | 87 |  |  |  | 
COc1ccc(C(C)c2nc(C)nc3ccccc23)cc1 (stereo not drawn) [II-1, 4-[1-(4-Methoxy-phenyl)-ethyl]-2-methyl-quinazoline] | 250 |  |  |  | 
C=C(c1ccc(OC)c(OC)c1)c1nc(Cl)nc2ccccc12 [Compound I-11, 2-Chloro-4-[1-(3,4-dimethoxy-phenyl)-vinyl]-quinazoline] | 700 |  |  |  | 
COc1ccc(/C=C\c2cc(OC)c(OC)c(OC)c2)cc1O [CA-4, combretastatin A-4] |  | […] |  |  | IC50 (many human cancer lines): […]; IC50 (tubulin [6]): […]; anti-vascular activity in vitro (in words) [7]: nanomolar
C=C(c1ccc(OC)cc1)c1cc(Cl)c2ccccc2n1 [Compound I-17, 4-Chloro-2-(1-(4-methoxyphenyl)vinyl)quinoline] | 95 |  |  |  | 
C=C(c1ccc(OC)cc1)c1nc(C)nc2ccccc12 [Compound I-1, 4-[1-(4-Methoxy-phenyl)-vinyl]-2-methyl-quinazoline] | 38 | 1800 | 40 | 34 | IC50 [3, 12]: 22 nM; IC50 [3, 13]: 22 to 38 nM; IC50 [4, 15]: 22 to 38 nM
C=C(c1cc(OC)c(OC)c(OC)c1)c1nc(Cl)nc2ccccc12 [Compound I-12, 2-Chloro-4-[1-(3,4,5-trimethoxy-phenyl)-vinyl]-quinazoline] | 900 |  |  |  | melting point: 135 to 136 °C
C=C(c1ccc(OC)cc1)c1cc(C)nc2ccccc12 [Compound I-19, 4-(1-(4-Methoxyphenyl)vinyl)-2-methylquinoline] | ≤ 1 | 1090 | < 20 | 17 | IC50 ([1]; Table 2, 50% cell death after 72 hours of incubation, read-out: HCT116 IC50): ≤ 1 nM; cytotoxic activities (in words) ([1]; cell line not given): sub-nanomolar; IC50 [5]: 0.7 nM
C=C(c1ccc(OC)cc1)c1cc(C#N)nc2ccccc12 [Compound I-16, 4-(1-(4-Methoxyphenyl)vinyl)quinoline-2-carbonitrile] |  | 960 | < 20 | 9 | IC50 [1, 16]: 1.6 nM; IC50 [5]: ≤ 1 nM
C=C(c1ccc(OC)c(F)c1)c1nc(C)nc2ccccc12 [Compound I-5, 4-[1-(3-Fluoro-4-methoxy-phenyl)-vinyl]-2-methyl-quinazoline] | 18 | 1000 | < 20 |  | 
C=C(c1ccc(OC)c(N)c1)c1nc(C)nc2ccccc12 [Compound I-7, 2-Methoxy-5-(1-(2-methylquinazolin-4-yl)vinyl)aniline] | 10 | 2300 | < 20 |  | 
C=C(c1ccc(OC)c(O)c1)c1cc(OC)c(OC)c(OC)c1 [isoCA-4, Isocombretastatin A-4, reference compound] |  | 1000 |  | 4 | IC50 [3, 12]: 5 nM; IC50 ([1]; Homo sapiens, HCT-116, 72 h, read-out: HCT116 IC50 (nM)): 2 nM; metabolized [8]: < 10%
